Source: patent US20240349727A1, “SYNERGY BETWEEN MIXTURES OF ISOTHIOCYANATES AND COMMERCIAL FUNGICIDES” (priority 2021, published 2024)
Read-outs that look alike come from different tables or passages of the source.

Experiments:
Format in all cases: cell-based
[1] = test system: Fusarium verticilloides; assay: In vitro fungitoxic activity, 48-well PDA outgrowth, curative (Example 2); conditions: 168 h, fungicide alone, 7 days at room temperature
Description: (§1) All the experiments were done in the same way. In 48-well plates, each well was filled with a volume of 180 μL of the ITC, the fungicide or a combination of both at various concentrations and filled with 180 μL of Potato Dextrose Agar (PDA). Two or three wells were used per concentration for better accuracy. After solidification of the well a plug of 2×2 mm of grown fungi was placed in each well, and the 48-well plate was sealed with parafilm. After 7 days of incubation at room temperature, the fungal outgrowth was measured and the EC50 was calculated with a 4-parameter logistic regression in XLSTAT.
(§2) Afterward, a concentration of the fungicides at which the fungi is not growing (i.e. […] the EC50) was determined. Applicants repeated the 48-well experiment by filling the well with a mixture of the ITC and the fungicides; the fungicide concentration was kept constant at the determined concentration mentioned above and the ITC concentration was varied. As before, the fungal outgrowth was measured after 7 days of incubation. To calculate the synergistic properties of the combo ITC+fungicides, the Combination Index (CI) described by Chou (2006) was calculated using the CompuSyn software.

[2] = test system: Rhizoctonia solani; assay: In vitro fungitoxic activity, 48-well PDA outgrowth, preventive (spore solution); conditions: 168 h, fungicide alone, 7 days at 20° C.
Description: (§3) All the experiments were done in the same way, with small differences between curative and preventive cases. In 48-well plates, each well was filled with a volume of 180 μL of the ITC, the fungicide or a combination of both at various concentrations and filled with 180 μL of Potato Dextrose Agar (PDA). Three wells were used per concentration for better accuracy. After solidification of the well, either a plug of 2×2 mm of grown fungi (curative case) or 20 μL of a spore solution (˜1E5 spores/mL, preventive case) was placed in each well, and the 48-well plate was sealed with parafilm. After 7 days of incubation at 20° C. in a controlled growth chamber, the fungal outgrowth was measured and the EC50 was calculated with a 4-parameter logistic regression in XLSTAT.
as §2, with “ITO” for “ITC”, “ITO+fungicides,” for “ITC+fungicides,”

[3] = test system: Rhizoctonia solani; assay: In vitro fungitoxic activity, 48-well PDA outgrowth, curative; conditions: 168 h, fungicide alone, 7 days at 20° C.
Description: as §3
as §2, with “ITO” for “ITC”, “ITO+fungicides,” for “ITC+fungicides,”

[4] = test system: Colletotrichum acutatum; assay: In vitro fungitoxic activity, 48-well PDA outgrowth, curative (Example 2); conditions: 168 h, fungicide alone, 7 days at room temperature
Description: as §1, §2

[5] = test system: Lasiodiplodia pseudotheobromae; assay: as above; conditions: 168 h, read-out: EC50 fungicide
Description: as §1, §2

[6] = test system: Alternaria radicina; assay: In vitro fungitoxic activity, 48-well PDA outgrowth, curative; conditions: 168 h, read-out: EC50 fungicide
Description: as §3
as §2, with “ITO” for “ITC”, “ITO+fungicides,” for “ITC+fungicides,”

[7] = test system: Penicillium digitatum; assay: as above; conditions: 168 h, read-out: EC50 fungicide
Description: as §3
as §2, with “ITO” for “ITC”, “ITO+fungicides,” for “ITC+fungicides,”

[8] = test system: Botrytis cinerea; assay: as above; conditions: 168 h, read-out: EC50 fungicide
Description: as §3
as §2, with “ITO” for “ITC”, “ITO+fungicides,” for “ITC+fungicides,”

[9] = test system: Geotrichum candidum; assay: as above; conditions: 168 h, read-out: EC50 fungicide
Description: as §3
as §2, with “ITO” for “ITC”, “ITO+fungicides,” for “ITC+fungicides,”

[10] = test system: Plectosphaerella cucumerina; assay: In vitro fungitoxic activity, 48-well PDA outgrowth, curative (Example 2); conditions: 168 h, read-out: EC50 fungicide
Description: as §1, §2

[11] = test system: Geotrichum candidum; assay: In vitro fungitoxic activity, 48-well PDA outgrowth, preventive (spore solution); conditions: 168 h, fungicide alone, 7 days at 20° C.
Description: as §3
as §2, with “ITO” for “ITC”, “ITO+fungicides,” for “ITC+fungicides,”

[12] = test system: Penicillium commune; assay: In vitro fungitoxic activity, 48-well PDA outgrowth, curative (Example 2); conditions: 168 h, fungicide alone, 7 days at room temperature
Description: as §1, §2

[13] = fungicide alone, curative, 7 days at room temperature
[14] = fungicide alone, curative, 7 days at 20° C.

**Q.** `O=C1C2CC=CCC2C(=O)N1SC(Cl)(Cl)Cl` (stereo not shown) [Captan] was tested. Which EC50 [1] did it give?
**A.** The EC50 was 424 µM.

**Q.** With `N#Cc1c(Cl)c(Cl)c(Cl)c(C#N)c1Cl` [Chlorothalonil] as the compound, how does the EC50 [2] read?
**A.** Its EC50 is 2 µM.

**Q.** What about the EC50 [3] of the same compound?
**A.** Its EC50 is 29 µM.

**Q.** And the EC50 [4]?
**A.** The EC50 was 52 µM.

**Q.** `Cc1cc(C2CC2)nc(Nc2ccccc2)n1` [Cyprodinil] was tested. Which EC50 [5, 13] did it give?
**A.** The EC50 was 9 µM.

**Q.** For `CCCCCCCCCCCCNC(=N)N` [Dodine], which EC50 [6] is on record?
**A.** The EC50 was 110 µM.

**Q.** And the EC50 [7]?
**A.** Its EC50 is 92 µM.

**Q.** And the EC50 [8]?
**A.** Its EC50 is 189 µM.

**Q.** What about the EC50 [9] of the same compound?
**A.** The EC50 was 156 µM.

**Q.** And the EC50 [5]?
**A.** The EC50 was 476 µM.

**Q.** What about the EC50 [10] of the same compound?
**A.** The EC50 was 93 µM.

**Q.** With `N#Cc1c[nH]cc1-c1cccc2c1OC(F)(F)O2` [Fludioxonil] as the compound, how does the EC50 [5] read?
**A.** Its EC50 is 1 µM.

**Q.** What does the source list for `Cc1cc(C)nc(Nc2ccccc2)n1` [Pyrimethanil]?
**A.** EC50 [6, 14]: 3 µM; EC50 [3]: 28 µM

**Q.** Which results are given for `CC(C)(C)C(O)(CCc1ccc(Cl)cc1)Cn1cncn1` (stereo not shown) [Tebuconazole]?
**A.** EC50 [11]: 25 µM; EC50 [6, 14]: 30 µM; EC50 [7, 14]: 1 µM; EC50 [3]: 18 µM; EC50 [9, 14]: 27 µM; EC50 [5, 13]: 300 µM; EC50 [1]: 6 µM; EC50 [12]: 179 µM
